Like-named read-outs stand apart in the source and are kept apart here.
Tests used:
Assay in all cases: biochemical
AMPK-alpha2 = AMPK-alpha2 (Homo sapiens, UniProt P54646)
AURKA = AURKA (Homo sapiens, UniProt O14965)
BMPR1B = BMPR1B (Homo sapiens, UniProt O00238)
BRAF(V600E) = BRAF(V600E) (Homo sapiens, UniProt P15056, V600E)
BRSK2 = BRSK2 (Homo sapiens, UniProt Q8IWQ3)
CDK3 = CDK3 (Homo sapiens, UniProt Q00526)
CDK5 = CDK5 (Homo sapiens, UniProt Q00535)
CDKL3 = CDKL3 (Homo sapiens, UniProt Q8IVW4)
CSNK1E = CSNK1E (Homo sapiens, UniProt P49674)
Sequence of CSNK1E (P49674 whole entry): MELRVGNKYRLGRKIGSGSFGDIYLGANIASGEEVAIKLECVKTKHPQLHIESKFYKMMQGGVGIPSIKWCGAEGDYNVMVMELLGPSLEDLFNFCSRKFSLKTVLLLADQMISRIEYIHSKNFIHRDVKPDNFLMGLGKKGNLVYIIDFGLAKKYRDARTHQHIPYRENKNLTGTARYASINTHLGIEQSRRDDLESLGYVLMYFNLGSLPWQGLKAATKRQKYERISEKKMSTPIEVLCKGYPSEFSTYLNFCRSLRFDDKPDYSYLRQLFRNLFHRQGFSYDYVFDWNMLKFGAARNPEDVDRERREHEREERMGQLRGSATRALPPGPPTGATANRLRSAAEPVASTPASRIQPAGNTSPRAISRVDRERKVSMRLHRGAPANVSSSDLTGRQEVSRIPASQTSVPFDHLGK

CSNK2A2 = CSNK2A2 (Homo sapiens, UniProt P19784)
Sequence of CSNK2A2 (P19784 whole entry): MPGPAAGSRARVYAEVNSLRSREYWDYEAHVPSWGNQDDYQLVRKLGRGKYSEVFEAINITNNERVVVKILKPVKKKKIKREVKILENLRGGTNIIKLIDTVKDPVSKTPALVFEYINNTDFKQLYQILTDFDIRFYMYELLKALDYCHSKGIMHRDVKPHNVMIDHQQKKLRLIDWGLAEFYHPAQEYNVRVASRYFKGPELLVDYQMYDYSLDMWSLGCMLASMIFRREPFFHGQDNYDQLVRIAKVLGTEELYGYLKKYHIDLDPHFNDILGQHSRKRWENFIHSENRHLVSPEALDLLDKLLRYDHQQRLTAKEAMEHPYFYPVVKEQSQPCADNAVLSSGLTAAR

CTK = CTK (Homo sapiens, UniProt P42679)
DCAMKL2 = DCAMKL2 (Homo sapiens, UniProt Q8N568)
DMPK = DMPK (Homo sapiens, UniProt Q09013)
GAK = GAK (Homo sapiens, UniProt O14976)
GRK7 = GRK7 (Homo sapiens, UniProt Q8WTQ7)
HCK = HCK (Homo sapiens, UniProt P08631)
HIPK2 = HIPK2 (Homo sapiens, UniProt Q9H2X6)
HIPK3 = HIPK3 (Homo sapiens, UniProt Q9H422)
INSR = INSR (Homo sapiens, UniProt P06213)
Sequence of INSR (P06213 whole entry): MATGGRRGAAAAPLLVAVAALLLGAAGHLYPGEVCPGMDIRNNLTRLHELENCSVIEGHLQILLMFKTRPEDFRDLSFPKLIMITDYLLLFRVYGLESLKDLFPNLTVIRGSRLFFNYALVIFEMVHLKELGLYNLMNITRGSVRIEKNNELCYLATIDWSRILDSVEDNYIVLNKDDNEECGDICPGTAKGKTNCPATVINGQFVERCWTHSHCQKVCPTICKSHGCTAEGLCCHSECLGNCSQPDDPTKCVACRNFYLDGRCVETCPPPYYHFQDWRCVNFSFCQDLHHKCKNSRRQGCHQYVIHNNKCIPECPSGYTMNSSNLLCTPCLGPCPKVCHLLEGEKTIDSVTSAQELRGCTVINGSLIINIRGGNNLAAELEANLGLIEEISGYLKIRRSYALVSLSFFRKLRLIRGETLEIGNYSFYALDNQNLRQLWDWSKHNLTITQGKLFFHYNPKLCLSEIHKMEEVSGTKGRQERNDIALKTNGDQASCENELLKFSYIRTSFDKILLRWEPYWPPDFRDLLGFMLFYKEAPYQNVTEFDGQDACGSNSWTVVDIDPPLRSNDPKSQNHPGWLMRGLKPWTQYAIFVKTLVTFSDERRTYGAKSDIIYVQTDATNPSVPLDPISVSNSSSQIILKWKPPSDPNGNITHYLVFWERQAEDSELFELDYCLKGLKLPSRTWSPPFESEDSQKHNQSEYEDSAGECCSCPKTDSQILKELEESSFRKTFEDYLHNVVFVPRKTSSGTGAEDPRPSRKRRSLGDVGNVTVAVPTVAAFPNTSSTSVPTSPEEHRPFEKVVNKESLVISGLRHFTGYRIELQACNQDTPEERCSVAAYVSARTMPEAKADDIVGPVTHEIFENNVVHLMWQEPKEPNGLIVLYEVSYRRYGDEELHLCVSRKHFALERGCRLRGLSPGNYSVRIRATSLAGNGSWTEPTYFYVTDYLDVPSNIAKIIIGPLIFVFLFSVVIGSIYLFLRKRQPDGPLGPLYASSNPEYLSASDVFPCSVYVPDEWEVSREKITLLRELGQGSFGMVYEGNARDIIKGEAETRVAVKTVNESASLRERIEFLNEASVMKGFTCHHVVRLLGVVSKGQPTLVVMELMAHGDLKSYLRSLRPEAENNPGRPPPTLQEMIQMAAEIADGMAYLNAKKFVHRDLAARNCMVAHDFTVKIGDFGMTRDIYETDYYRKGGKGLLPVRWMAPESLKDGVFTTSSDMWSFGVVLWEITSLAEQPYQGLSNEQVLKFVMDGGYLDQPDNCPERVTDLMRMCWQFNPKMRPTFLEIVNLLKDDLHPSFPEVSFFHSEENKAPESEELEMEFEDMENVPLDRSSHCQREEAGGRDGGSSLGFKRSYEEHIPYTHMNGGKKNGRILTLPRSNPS

IRAK4 = IRAK4 (Homo sapiens, UniProt Q9NWZ3)
Sequence of IRAK4 (Q9NWZ3 whole entry): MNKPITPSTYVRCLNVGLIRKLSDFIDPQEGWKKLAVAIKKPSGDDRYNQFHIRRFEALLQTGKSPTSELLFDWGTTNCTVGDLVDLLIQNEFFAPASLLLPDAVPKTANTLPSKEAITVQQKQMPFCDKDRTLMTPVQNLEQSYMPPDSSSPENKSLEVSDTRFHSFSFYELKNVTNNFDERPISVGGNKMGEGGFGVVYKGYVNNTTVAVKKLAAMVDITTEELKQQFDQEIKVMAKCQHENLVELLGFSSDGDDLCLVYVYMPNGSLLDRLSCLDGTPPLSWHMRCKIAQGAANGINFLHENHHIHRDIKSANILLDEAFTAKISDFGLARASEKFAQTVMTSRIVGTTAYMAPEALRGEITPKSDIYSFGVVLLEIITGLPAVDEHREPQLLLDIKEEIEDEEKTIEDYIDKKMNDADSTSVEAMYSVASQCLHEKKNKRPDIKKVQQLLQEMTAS

KIT(D816H) = KIT(D816H) (Homo sapiens, UniProt P10721, D816H)
LIMK1 = LIMK1 (Homo sapiens, UniProt P53667)
MAP3K2 = MAP3K2 (Homo sapiens, UniProt Q9Y2U5)
Sequence of MAP3K2 (Q9Y2U5 whole entry): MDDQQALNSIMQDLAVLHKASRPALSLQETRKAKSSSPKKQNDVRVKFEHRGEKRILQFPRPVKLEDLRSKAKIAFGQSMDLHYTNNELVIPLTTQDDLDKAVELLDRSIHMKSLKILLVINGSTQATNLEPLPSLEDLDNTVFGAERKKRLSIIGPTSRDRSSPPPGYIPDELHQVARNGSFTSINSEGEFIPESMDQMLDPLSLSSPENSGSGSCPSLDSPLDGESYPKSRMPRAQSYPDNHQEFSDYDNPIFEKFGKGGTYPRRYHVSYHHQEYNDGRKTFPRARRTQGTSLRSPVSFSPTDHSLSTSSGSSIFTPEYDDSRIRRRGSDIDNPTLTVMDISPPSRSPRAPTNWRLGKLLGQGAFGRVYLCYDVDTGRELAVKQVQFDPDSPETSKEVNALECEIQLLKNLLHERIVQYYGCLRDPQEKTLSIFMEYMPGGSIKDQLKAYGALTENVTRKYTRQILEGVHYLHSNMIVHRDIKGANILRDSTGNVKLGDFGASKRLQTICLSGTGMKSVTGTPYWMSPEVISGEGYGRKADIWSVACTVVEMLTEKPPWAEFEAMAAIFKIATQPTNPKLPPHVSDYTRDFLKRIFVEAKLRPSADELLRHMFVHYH

MAP3K4 = MAP3K4 (Homo sapiens, UniProt Q9Y6R4)
MARK1 = MARK1 (Homo sapiens, UniProt Q9P0L2)
MARK2 = MARK2 (Homo sapiens, UniProt Q7KZI7)
MERTK = MERTK (Homo sapiens, UniProt Q12866)
Sequence of MERTK (Q12866 whole entry): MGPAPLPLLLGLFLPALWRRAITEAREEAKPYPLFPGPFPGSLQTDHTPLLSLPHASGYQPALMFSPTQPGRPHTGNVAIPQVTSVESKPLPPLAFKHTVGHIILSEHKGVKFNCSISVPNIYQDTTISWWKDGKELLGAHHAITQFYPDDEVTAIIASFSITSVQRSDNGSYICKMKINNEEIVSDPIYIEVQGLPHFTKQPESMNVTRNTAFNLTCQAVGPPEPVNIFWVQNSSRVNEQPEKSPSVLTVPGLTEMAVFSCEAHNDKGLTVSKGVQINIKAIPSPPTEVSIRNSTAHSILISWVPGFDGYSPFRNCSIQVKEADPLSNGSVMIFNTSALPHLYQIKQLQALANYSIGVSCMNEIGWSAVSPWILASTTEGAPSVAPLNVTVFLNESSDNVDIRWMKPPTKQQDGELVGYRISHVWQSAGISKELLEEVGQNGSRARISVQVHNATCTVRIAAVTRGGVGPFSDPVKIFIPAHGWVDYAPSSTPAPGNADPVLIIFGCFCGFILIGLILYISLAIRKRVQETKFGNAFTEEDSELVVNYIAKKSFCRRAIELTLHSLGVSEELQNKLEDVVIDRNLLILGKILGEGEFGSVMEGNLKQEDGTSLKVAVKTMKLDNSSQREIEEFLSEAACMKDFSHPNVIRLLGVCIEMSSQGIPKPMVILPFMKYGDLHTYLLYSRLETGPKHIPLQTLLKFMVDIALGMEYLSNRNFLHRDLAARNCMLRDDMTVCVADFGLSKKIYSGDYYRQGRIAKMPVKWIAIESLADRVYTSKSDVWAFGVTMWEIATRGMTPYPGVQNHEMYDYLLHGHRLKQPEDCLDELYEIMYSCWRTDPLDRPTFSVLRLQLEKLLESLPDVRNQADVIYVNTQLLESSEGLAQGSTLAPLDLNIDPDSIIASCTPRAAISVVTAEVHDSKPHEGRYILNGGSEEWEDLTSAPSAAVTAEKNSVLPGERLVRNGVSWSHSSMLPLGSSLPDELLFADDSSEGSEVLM

MET(M1250T) = MET(M1250T) (Homo sapiens, UniProt P08581, M1250T)
MLCK = MLCK (Homo sapiens, UniProt Q32MK0)
MST2 = MST2 (Homo sapiens, UniProt Q13188)
Sequence of MST2 (Q13188 whole entry): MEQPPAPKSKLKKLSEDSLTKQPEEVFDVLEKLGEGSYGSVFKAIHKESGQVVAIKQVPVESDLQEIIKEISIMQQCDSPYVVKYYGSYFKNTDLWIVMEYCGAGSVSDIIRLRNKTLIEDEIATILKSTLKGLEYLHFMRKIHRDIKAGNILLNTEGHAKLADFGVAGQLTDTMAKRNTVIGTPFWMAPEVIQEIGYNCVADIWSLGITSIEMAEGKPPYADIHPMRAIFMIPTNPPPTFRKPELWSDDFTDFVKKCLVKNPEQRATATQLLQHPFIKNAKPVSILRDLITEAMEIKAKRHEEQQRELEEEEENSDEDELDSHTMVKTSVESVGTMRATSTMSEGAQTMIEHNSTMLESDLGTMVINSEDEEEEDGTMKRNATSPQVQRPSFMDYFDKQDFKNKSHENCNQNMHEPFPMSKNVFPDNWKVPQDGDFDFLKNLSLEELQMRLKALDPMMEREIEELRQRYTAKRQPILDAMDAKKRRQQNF

[1] = read-out: CPT-1-70-1 (1uM) % control
[2] = read-out: HYJ-2-002-1 (1uM) % control

Sequence of CDK3 (Q00526 whole entry): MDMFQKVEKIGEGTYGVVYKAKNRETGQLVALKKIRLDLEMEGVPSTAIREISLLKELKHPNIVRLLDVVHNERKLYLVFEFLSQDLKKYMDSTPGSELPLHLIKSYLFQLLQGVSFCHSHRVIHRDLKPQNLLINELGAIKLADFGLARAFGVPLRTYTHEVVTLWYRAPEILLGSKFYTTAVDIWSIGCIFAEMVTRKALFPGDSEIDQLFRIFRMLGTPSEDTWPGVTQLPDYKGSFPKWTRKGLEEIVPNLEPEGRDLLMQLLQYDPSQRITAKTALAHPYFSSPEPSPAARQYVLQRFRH

For `CN1CCN(c2ccc(Nc3nc(Oc4ccc(NC(=O)CCl)cc4)c4cc[nH]c4n3)cc2)CC1` [CPT1-70-1], the remaining activity at 1 µM (AMPK-alpha2; [1]) was 41%, the remaining activity at 1 µM (AURKA; [1]) was 37% and the remaining activity at 1 µM (BMPR1B; [1]) was 100%. For the same compound, the remaining activity at 1 µM (BRAF(V600E); [1]) was 100%, the remaining activity at 1 µM (BRSK2; [1]) was 97% and the remaining activity at 1 µM (CDK3; [1]) was 100%. The remaining activity at 1 µM (CDK5; [1]) was 100%, the remaining activity at 1 µM (CDKL3; [1]) was 100% and the remaining activity at 1 µM (CSNK1E; [1]) was 18%. It also gave a remaining activity at 1 µM (CSNK2A2; [1]) of 28%, a remaining activity at 1 µM (CTK; [1]) of 100% and a remaining activity at 1 µM (DCAMKL2; [1]) of 92%. The remaining activity at 1 µM (DMPK; [1]) was 41%, the remaining activity at 1 µM (GAK; [1]) was 7.9% and the remaining activity at 1 µM (GRK7; [1]) was 100%. It also gave a remaining activity at 1 µM (HCK; [1]) of 85%, a remaining activity at 1 µM (HIPK2; [1]) of 90% and a remaining activity at 1 µM (HIPK3; [1]) of 74%. It also gave a remaining activity at 1 µM (INSR; [1]) of 17%, a remaining activity at 1 µM (IRAK4; [1]) of 94% and a remaining activity at 1 µM (KIT(D816H); [1]) of 83%. It also gave a remaining activity at 1 µM (LIMK1; [1]) of 90%, a remaining activity at 1 µM (MAP3K2; [1]) of 37% and a remaining activity at 1 µM (MAP3K4; [1]) of 66%. For the same compound, the remaining activity at 1 µM (MARK1; [1]) was 2.1%, the remaining activity at 1 µM (MARK2; [1]) was 10% and the remaining activity at 1 µM (MERTK; [1]) was 70%. It also gave a remaining activity at 1 µM (MET(M1250T); [1]) of 39%, a remaining activity at 1 µM (MLCK; [1]) of 100% and a remaining activity at 1 µM (MST2; [1]) of 86%.
`CCN1CCN(Cc2ccc(NC(=O)c3ccc(C)c(CCc4cnc5[nH]ccc5c4OC)c3)cc2C(F)(F)F)CC1` [HYJ-2-002-1] showed a remaining activity at 1 µM (AMPK-alpha2; [2]) of 100%, a remaining activity at 1 µM (AURKA; [2]) of 100% and a remaining activity at 1 µM (BMPR1B; [2]) of 100%. For the same compound, the remaining activity at 1 µM (BRAF(V600E); [2]) was 1.2%, the remaining activity at 1 µM (BRSK2; [2]) was 91% and the remaining activity at 1 µM (CDK3; [2]) was 99%. It also gave a remaining activity at 1 µM (CDK5; [2]) of 100%, a remaining activity at 1 µM (CDKL3; [2]) of 34% and a remaining activity at 1 µM (CSNK1E; [2]) of 75%. The remaining activity at 1 µM (CSNK2A2; [2]) was 100%, the remaining activity at 1 µM (CTK; [2]) was 91% and the remaining activity at 1 µM (DCAMKL2; [2]) was 100%. It also gave a remaining activity at 1 µM (DMPK; [2]) of 100%, a remaining activity at 1 µM (GAK; [2]) of 4.8% and a remaining activity at 1 µM (GRK7; [2]) of 100%. The remaining activity at 1 µM (HCK; [2]) was 0.55%, the remaining activity at 1 µM (HIPK2; [2]) was 84% and the remaining activity at 1 µM (HIPK3; [2]) was 55%. For the same compound, the remaining activity at 1 µM (INSR; [2]) was 92%, the remaining activity at 1 µM (IRAK4; [2]) was 94% and the remaining activity at 1 µM (KIT(D816H); [2]) was 43%. The remaining activity at 1 µM (LIMK1; [2]) was 26%, the remaining activity at 1 µM (MAP3K2; [2]) was 26% and the remaining activity at 1 µM (MAP3K4; [2]) was 100%. For the same compound, the remaining activity at 1 µM (MARK1; [2]) was 100%, the remaining activity at 1 µM (MARK2; [2]) was 64% and the remaining activity at 1 µM (MERTK; [2]) was 30%. For the same compound, the remaining activity at 1 µM (MET(M1250T); [2]) was 61%, the remaining activity at 1 µM (MLCK; [2]) was 89% and the remaining activity at 1 µM (MST2; [2]) was 83%.
